Measurements as given in the supplement of paper PMC4862054.

Assays:
Details in all cases: incubation time: 72 h
[1] = tested on: BT-474; experiment: normalised response (% of control), CellTox Green; higher = less cell death (100 = DMSO, 0 = benzethonium chloride kill control)
In short: (§1)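 Plates were normalised with 0.1 % DMSO as 100 and a positive kill control as 0. Breast cancer cell lines in 20 µl suspension had been seeded into 384-well plates with compound at 5 concentrations in 10-fold steps over a compound-specific 10,000-fold range, incubated 72 h, and read for CellTox Green fluorescence (485/520 nm) followed by CellTiter-Glo luminescence. Each value is the normalised signal at a single concentration.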

[2] = tested on: BT-549; experiment: as above
In short: as §1

[3] = tested on: CAL-120; experiment: as above
In short: as §1

[4] = tested on: CAL-148; experiment: as above
In short: as §1

[5] = tested on: CAL-51; experiment: as above
In short: as §1

[6] = tested on: CAL-85-1; experiment: as above
In short: as §1

[7] = tested on: DU-4475; experiment: as above
In short: as §1

[8] = tested on: HCC1143; experiment: as above
In short: as §1

[9] = tested on: HCC1599; experiment: as above
In short: as §1

[10] = tested on: HDQ-P1; experiment: as above
In short: as §1

[11] = tested on: Hs578T; experiment: as above
In short: as §1

[12] = tested on: MCF-10A; experiment: as above
In short: as §1

[13] = tested on: MDA-MB-436; experiment: as above
In short: as §1

[14] = tested on: MDA-MB-453; experiment: as above
In short: as §1

[15] = tested on: MDA-MB-468; experiment: as above
In short: as §1

[16] = tested on: MFM-223; experiment: as above
In short: as §1

[17] = tested on: BT-474; experiment: normalised response (% of control), CellTiter-Glo; higher = more viable cells (100 = DMSO, 0 = benzethonium chloride kill control)
Method: (§2)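 DSRT, 72 h incubation, CellTox Green / CellTiter-Glo readout. Signal is normalised to DMSO and benzethonium chloride controls. Value is the normalised response at dose 3.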

[18] = tested on: BT-549; experiment: as above
Method: as §2

[19] = tested on: CAL-120; experiment: as above
Method: as §2

[20] = tested on: CAL-148; experiment: as above
Method: as §2

[21] = tested on: CAL-51; experiment: as above
Method: as §2

[22] = tested on: CAL-85-1; experiment: as above
Method: as §2

[23] = tested on: DU-4475; experiment: as above
Method: as §2

[24] = tested on: HCC1143; experiment: as above
Method: as §2

[25] = tested on: HCC1599; experiment: as above
Method: as §2

[26] = tested on: HCC1937; experiment: as above
Method: as §2

[27] = tested on: HDQ-P1; experiment: as above
Method: as §2

[28] = tested on: Hs578T; experiment: as above
Method: as §2

[29] = tested on: MCF-10A; experiment: as above
Method: as §2

[30] = tested on: MDA-MB-231; experiment: as above
Method: as §2

[31] = tested on: MDA-MB-436; experiment: as above
Method: as §2

[32] = tested on: MDA-MB-453; experiment: as above
Method: as §2

[33] = tested on: MDA-MB-468; experiment: as above
Method: as §2

[34] = tested on: MFM-223; experiment: as above
Method: as §2

[35] = tested on: SK-BR-3; experiment: as above
Method: as §2

[36] = tested on: MDA-MB-231; experiment: normalised response (% of control), CellTox Green; higher = less cell death (100 = DMSO, 0 = benzethonium chloride kill control)
In short: as §1

[37] = tested on: HCC1937; experiment: as above
In short: as §1

SMILES | normalised response [1] [%] | normalised response [2] [%] | normalised response [3] [%] | normalised response [4] [%] | normalised response [5] [%] | normalised response [6] [%] | normalised response [7] [%] | normalised response [8] [%] | normalised response [9] [%] | normalised response [10] [%] | normalised response [11] [%] | normalised response [12] [%] | normalised response [13] [%] | normalised response [14] [%] | normalised response [15] [%] | normalised response [16] [%] | normalised response [17] [%] | normalised response [18] [%] | normalised response [19] [%] | normalised response [20] [%] | normalised response [21] [%] | normalised response [22] [%] | normalised response [23] [%] | normalised response [24] [%] | normalised response [25] [%] | normalised response [26] [%] | normalised response [27] [%] | normalised response [28] [%] | normalised response [29] [%] | normalised response [30] [%] | normalised response [31] [%] | normalised response [32] [%] | normalised response [33] [%] | normalised response [34] [%] | normalised response [35] [%] | normalised response [36] [%] | normalised response [37] [%]
CCNC(=O)c1noc(-c2cc(C(C)C)c(O)cc2O)c1-c1ccc(CN2CCOCC2)cc1 [NVP-AUY922] (10 nM) | 95.4 | 81.9 | 93 | 107 | 118 | 73.1 | 98.7 | 119 | 112 | 104 | 105 | 65 | 70.9 | 101 | 107 | 106 | 116 | 73.2 | 103 | 114 | 99.3 | 107 | 101 | 107 | 111 | 95.7 | 77.1 | 104 | 95 | 110 | 56.4 | 101 | 32.4 | 70.4 | 55.8 |  | 
CO[C@@H]1[C@H](N(C)C(=O)c2ccccc2)C[C@H]2O[C@]1(C)n1c3ccccc3c3c4c(c5c6ccccc6n2c5c31)C(=O)NC4 [Midostaurin] (100 nM) | 96.4 | 88.8 | 74.9 | 97.8 | 74.1 | 95.8 | 94.6 | 88.6 | 94.5 | 103 | 67 | 108 | 93.9 | 102 | 137 | 103 | 85.3 | 93.4 | 88.5 | 114 | 89.7 | 99 | 96.9 | 95.3 | 99.6 | 85.5 | 95.9 | 83.3 | 68.7 | 85.8 | 102 | 94.3 | 92.4 | 98.8 | 98.4 | 91.2 | 
Nc1ccn([C@@H]2O[C@H](CO)[C@@H](O)C2(F)F)c(=O)n1 [Gemcitabine] (10 nM) | 97.1 | 92.5 | 99.7 | 36.9 | 84.7 | 85 | 101 | 102 | 100 |  | 102 | 103 | 97.1 | 105 | 48.3 | 95.2 | 89.3 | 61.3 | 94.9 | 77.9 | 82 | 85.6 | 96.8 | 68.3 | 89.5 | 90.8 | 102 | 99.3 | 102 | 85.3 | 64.2 | 139 | 52.2 | 100 | 79.6 | 97.9 | 111
CC1(COc2ccc3c(c2)ncn3-c2ccc3cccc(N4CCC(N)CC4)c3n2)COC1 [Crenolanib] (100 nM) | 103 | 89.1 | 97.2 | 82.2 | 90.2 | 104 | 103 |  | 99.3 | 105 | 107 | 95.4 |  | 108 | 99.6 | 94.3 | 108 | 103 | 97.9 | 107 | 77.8 | 112 | 104 | 109 | 110 | 102 | 105 | 103 | 110 | 113 | 103 | 112 | 107 | 104 | 114 | 120 | 80.2
